How the values were obtained:
[1] = biological target: Human insulin (I8530), Sigma-Aldrich (human) (UniProt P01308); experiment: SPR, Biacore 3000, antibody immobilised on CM5, insulin as analyte, 1:1 model; HBS-EP + 0.5 M GuHCl
[2] = biological target: Human insulin (I8530), Sigma-Aldrich (human) (UniProt P01308); experiment: SPR, Biacore 3000, antibody immobilised on CM5, insulin as analyte, KD = kd/ka; HBS-EP + 0.5 M GuHCl
[3] = biological target: Human insulin (I8530), Sigma-Aldrich (human) (UniProt P01308); experiment: SPR, Biacore 3000, antibody immobilised on CM5, insulin as analyte, 1:1 model; HBS-EP + 0.5 M NaCl
[4] = biological target: Human insulin (I8530), Sigma-Aldrich (human) (UniProt P01308); experiment: SPR; association rate constant in HBS-EP + 0.5 M ArgHCl relative to HBS-EP + 0.5 M NaCl
[5] = biological target: Human insulin (I8530), Sigma-Aldrich (human) (UniProt P01308); experiment: SPR, Biacore 3000, antibody immobilised on CM5, insulin as analyte, 1:1 model; HBS-EP + 0.5 M ArgHCl
[6] = biological target: Human insulin (I8530), Sigma-Aldrich (human) (UniProt P01308); experiment: SPR; association rate constant in HBS-EP + 0.5 M GuHCl relative to HBS-EP + 0.5 M NaCl
[7] = biological target: Human insulin (I8530), Sigma-Aldrich (human) (UniProt P01308); experiment: SPR, Biacore 3000, antibody immobilised on CM5, insulin as analyte, KD = kd/ka; HBS-EP + 0.5 M ArgHCl
[8] = biological target: Human insulin (I8530), Sigma-Aldrich (human) (UniProt P01308); experiment: SPR; dissociation rate constant in HBS-EP + 0.5 M ArgHCl relative to HBS-EP + 0.5 M NaCl
[9] = biological target: Human insulin (I8530), Sigma-Aldrich (human) (UniProt P01308); experiment: SPR, Biacore 3000, antibody immobilised on CM5, insulin as analyte, KD = kd/ka; HBS-EP + 0.5 M NaCl
[10] = biological target: Human insulin (I8530), Sigma-Aldrich (human) (UniProt P01308); experiment: SPR; dissociation rate constant in HBS-EP + 0.5 M GuHCl relative to HBS-EP + 0.5 M NaCl
carbonic anhydrase II [11] = biological target: T1, carbonic anhydrase II (Bos taurus, UniProt P00921); experiment: Carbonic anhydrase refolding yield by esterase activity (pNPA); settings: for α/α0 / α (refolding selectivity parameter, kr/kagg): 0.5 M additive, base buffer 0.5 M GuHCl; for α/α0: relative to 0.5M NaCl; for α (refolding selectivity parameter, kr/kagg): fit to second-order aggregation model; for order of yield of active protein as a function of buffer additive: equimolar (0.5M) additives
T1 sequence (P00921 whole entry): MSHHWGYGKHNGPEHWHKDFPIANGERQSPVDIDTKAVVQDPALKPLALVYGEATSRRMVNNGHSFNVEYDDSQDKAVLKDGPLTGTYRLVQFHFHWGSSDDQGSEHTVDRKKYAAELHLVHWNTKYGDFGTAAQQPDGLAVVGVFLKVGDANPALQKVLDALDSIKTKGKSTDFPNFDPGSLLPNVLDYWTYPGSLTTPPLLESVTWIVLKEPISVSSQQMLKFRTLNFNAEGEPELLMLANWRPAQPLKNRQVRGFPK
Experimental: Esterase activity assays were performed as a function of initial unfolded protein concentration and buffer composition to determine how equimolar concentrations of NaCl, ArgHCl, and GuHCl each affected refolding yield (FIG. 16).
High concentrations of carbonic anhydrase (>300 μM) were denatured in 6M GuHCl and equilibrated overnight. Refolding was initiated by dilution to 0.5M GuHCl with 50 mM Tris-HCl buffer, pH 7.5. This final GuHCl concentration was selected because it yields a mixture of active, refolded protein and aggregates. The distribution of this mixture was analyzed via esterase activity, size exclusion HPLC, and dynamic light scattering as described above.
Carbonic Anhydrase Esterase Activity—Esterase activity of carbonic anhydrase was assessed using para-nitrophenylacetate (pNPA) as the substrate as described previously. […] Briefly, 10 μl samples of carbonic anhydrase solution were added to 500 μl of Tris-HCl, pH 7.5 and 50 μl of 50 mM pNPA in acetonitrile. Kinetics of hydrolysis of pNPA was observed by the increase in absorbance at 400 nm due to the appearance of the paranitrophenolate ion (pNP^−). In all cases, the observed hydrolysis rate in absorbance units per second (AU/s) under these conditions was constant (pseudo-zero order). Hydrolysis rates were corrected for the hydrolysis of pNPA by the buffer for each type of buffer used. […] The active protein concentration data was reproducible to within 5-8% in replicated experiments.

carbonic anhydrase II [12] = biological target: T1, carbonic anhydrase II; experiment: Size exclusion HPLC of multimers formed during refolding of carbonic anhydrase; design: purchased Sigma-Aldrich C2522; species or system bovine; settings: for yield of monomeric protein: 0.5M added, versus 0.5M NaCl; for A2, percentage of total carbonic anhydrase / A3-5, percentage of total carbonic anhydrase / A6-15, percentage of total carbonic anhydrase / M (monomer), percentage of total carbonic anhydrase / Large multimers, percentage of total carbonic anhydrase: [U]0 = 20 μM, 0.5 M additive; for Large multimers, percentage of total carbonic anhydrase: inferred by difference
Experimental: Size exclusion HPLC experiments were performed to analyze the distribution of multimers formed during refolding. CA was refolded with three different additives, 0.5M NaCl, 0.5M GuHCl, and 0.5M ArgHCl, relative to a base refolding buffers of 0.5M GuHCl, as done in the esterase activity assays above. […] Other than this protein concentration difference, these experiments allow direct comparison of how an additional 0.5M of the three different cations affect refolding.
The samples were not filtered prior to introduction into the HPLC column.
Size Exclusion HPLC—Size exclusion HPLC (SE-HPLC) experiments were performed on a Beckman System Gold HPLC instrument equipped with a Tosohaas G3000SWXL size exclusion column and a UV detector. 30 μl samples were introduced to the column by a constant flow of 1 ml/min mobile phase. Each sample ran for 15 minutes, with carbonic anhydrase eluting between 6 and 10 minutes, depending on its molecular weight and buffer. […] A mixture of lysozyme, carbonic anhydrase, and bovine serum albumin (monomer and dimer) was used as a standard to calibrate molecular weight to retention time. Using this calibration curve and the breakthrough time of the column, the largest multimer that could pass through the column was a 15-mer. When significant mass was missing from a chromatogram, large multimers were quantitated by difference. The presence of large multimers was confirmed via turbidity or dynamic light scattering for each buffer. The instrument was cleaned with 30 μl injections of 4M GuHCl, a denaturing concentration found to dissociate and elute precipitates and large soluble carbonic anhydrase multimers.

[13] = biological target: T2, insulin binding to immobilized monoclonal anti-insulin (Homo sapiens, UniProt P01308); experiment: Surface plasmon resonance (Biacore 3000): globular protein association/dissociation kinetics in buffer with additive; settings: for ka / kd: pH 7.4, estimated error 15%; for ka/ka0 / kd/kd0: 0.5 M additive, relative to HBS-EP + 0.5 M NaCl; for effect on association rate of insulin and anti-insulin / effect on dissociation rate of insulin and anti-insulin: 0.5M, relative to 0.5M NaCl control
T2 construct: purchased Sigma-Aldrich (insulin); Fitzgerald Industries (antibody) I8530; 10-130 clone M322214
T2 sequence (P01308 25-54 limits assumed): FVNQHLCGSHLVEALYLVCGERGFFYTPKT
T2 sequence (P01308 90-110 limits assumed): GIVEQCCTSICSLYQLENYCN
Experimental: Surface plasmon resonance experiments were conducted to measure the effect of added ArgHCl and GuHCl on the kinetics of globular protein association and dissociation versus an equimolar salt control (NaCl). The data set shown in the figure is a composition of 8 different concentration runs plus replicates, for a total of 16 runs. At t=140 sec, the flow cell with immobilized anti-insulin was exposed to a constant concentration of insulin in the range of 2 to 188 nM for 3 minutes. During this 3 minutes, the antibody and antigen were free to associate and dissociate. The net reaction is the binding of free antigen in solution, resulting in an increase in detector response proportional to the mass of antigen bound. At t=320 sec, the insulin concentration in the flow cell inlet is returned to zero, and the bound antigen then dissociates from the surface. All 16 runs were simultaneously fit to a binding model by minimizing the squared residuals to yield the association and dissociation rate constants, ka and kd. This process was repeated to yield association, dissociation, and equilibrium constant data for the model systems in various buffers as shown in Table 4.
Globular Protein Association Kinetics—Protein association and dissociation rate constants, ka and kd, were measured for globular proteins via surface plasmon resonance on a Biacore 3000 instrument. Monoclonal anti-insulin was immobilized on a Biacore CM5 sensor chip via amine coupling. The amount of immobilized antibody was selected to give a detector response in the range of 50-100 RU when antigen was present. A reference surface was created by activating and deactivating the surface without coupling an antibody to it.
Different concentrations of insulin in the nanomolar range ([…]) were prepared by dilution and injected serially into the antibody-containing and reference flow cells. […] Pocker, Y. & Biswas, Subhasis, B. (1981) Biochemistry 20, 4354-4361. The dissociation rate was sufficiently fast in buffer that a regeneration buffer was not required. Kinetic constants were extracted by simultaneous fitting of ka and kd to each set of sensorgrams using a 1:1 kinetic model in the BIAevaluation 3.0 software package.

carbonic anhydrase II [14] = biological target: T1, carbonic anhydrase II; design: purchased Sigma-Aldrich C2522; settings: 1.0M GuHCl, carbonic anhydrase less than 30 μM; previous studies; cited from earlier work

Chain of Human insulin (I8530), Sigma-Aldrich (human) (P01308 25-54 limits assumed, chain 1 of 2): as the sequence (P01308 25-54 limits assumed) above

Compound	α/α0 (carbonic anhydrase II [11])	α (refolding selectivity parameter, kr/kagg) (carbonic anhydrase II [11]) [µM]	order of yield of active protein as a function of buffer additive (carbonic anhydrase II [11])	yield of monomeric protein (carbonic anhydrase II [12])	A2, percentage of total carbonic anhydrase (carbonic anhydrase II [12]; time 2 min) [%]	A3-5, percentage of total carbonic anhydrase (carbonic anhydrase II [12]; time 2 min) [%]	A6-15, percentage of total carbonic anhydrase (carbonic anhydrase II [12]; time 2 min) [%]	M (monomer), percentage of total carbonic anhydrase (carbonic anhydrase II [12]; time 2 min) [%]	Large multimers, percentage of total carbonic anhydrase (carbonic anhydrase II [12]; time 2 min) [%]	A2, percentage of total carbonic anhydrase (carbonic anhydrase II [12]; time 20 min) [%]	A3-5, percentage of total carbonic anhydrase (carbonic anhydrase II [12]; time 20 min) [%]	A6-15, percentage of total carbonic anhydrase (carbonic anhydrase II [12]; time 20 min) [%]	M (monomer), percentage of total carbonic anhydrase (carbonic anhydrase II [12]; time 20 min) [%]	Large multimers, percentage of total carbonic anhydrase (carbonic anhydrase II [12]; time 20 min) [%]	A2, percentage of total carbonic anhydrase (carbonic anhydrase II [12]; time 38 min) [%]	A3-5, percentage of total carbonic anhydrase (carbonic anhydrase II [12]; time 38 min) [%]	A6-15, percentage of total carbonic anhydrase (carbonic anhydrase II [12]; time 38 min) [%]	M (monomer), percentage of total carbonic anhydrase (carbonic anhydrase II [12]; time 38 min) [%]	Large multimers, percentage of total carbonic anhydrase (carbonic anhydrase II [12]; time 38 min) [%]	A2, percentage of total carbonic anhydrase (carbonic anhydrase II [12]; time 1500 min) [%]	also measured
Monoclonal anti-insulin (10-130 clone M322214), Fitzgerald Industries (antibody)																					koff [1]: 0.094 s⁻¹; kon [1]: 40000 M⁻¹ s⁻¹; Kd [2]: 2400 nM; koff [3]: 0.014 s⁻¹; kon [3]: 44000 M⁻¹ s⁻¹; ka/ka0 [4]: 0.27; koff [5]: 0.022 s⁻¹; kon [5]: 12000 M⁻¹ s⁻¹; ka/ka0 [6]: 0.91; Kd [7]: 1800 nM; kd/kd0 [8]: 1.6; Kd [9]: 320 nM; kd/kd0 [10]: 6.7
Cl.N=C(N)NCCC[C@H](N)C(=O)O [ArgHCl, arginine hydrochloride]	5.0	47	NaCl<<ArgHCl<GuHCl	significantly increased	30	25	21	22	2	7	14	26	54	−1	4	11	24	62	−1	0	average aggregate molecular weight (ignoring the monomer) (carbonic anhydrase II [12]; 0.5M additive, compared among the three buffers): lowest; A3-5, percentage of total carbonic anhydrase (carbonic anhydrase II [12]; time 1500 min): 0%; A6-15, percentage of total carbonic anhydrase (carbonic anhydrase II [12]; time 1500 min): 19%; M (monomer), percentage of total carbonic anhydrase (carbonic anhydrase II [12]; time 1500 min): 80%; Large multimers, percentage of total carbonic anhydrase (carbonic anhydrase II [12]; time 1500 min): 1%; ka ([13]; 0.5 M additive in HBS-EP): 12000 M⁻¹ s⁻¹; kd ([13]; 0.5 M additive in HBS-EP): 0.022 s⁻¹; Kd ([13]; 0.5 M additive in HBS-EP, KD ≡ kd/ka): 1800 nM; ka/ka0 [13]: 0.27; kd/kd0 [13]: 1.6; effect on association rate of insulin and anti-insulin [13]: slowed; effect on dissociation rate of insulin and anti-insulin [13]: accelerated
Cl.N=C(N)N [GuHCl, Guanidinium chloride]	8.2	77	NaCl<<ArgHCl<GuHCl	significantly increased	39	8	0	42	11	3	6	0	82	9	1	5	0	85	9	0	A3-5, percentage of total carbonic anhydrase (carbonic anhydrase II [12]; time 1500 min): 2%; A6-15, percentage of total carbonic anhydrase (carbonic anhydrase II [12]; time 1500 min): 0%; M (monomer), percentage of total carbonic anhydrase (carbonic anhydrase II [12]; time 1500 min): 89%; Large multimers, percentage of total carbonic anhydrase (carbonic anhydrase II [12]; time 1500 min): 9%; yield of native protein (carbonic anhydrase II [14]): ~100%; ka ([13]; 0.5 M additive in HBS-EP): 40000 M⁻¹ s⁻¹; kd ([13]; 0.5 M additive in HBS-EP): 0.094 s⁻¹; ka/ka0 [13]: 0.91; kd/kd0 [13]: 6.7; effect on association rate of insulin and anti-insulin [13]: insignificant effect; effect on dissociation rate of insulin and anti-insulin [13]: significantly increases; effect on association rate of insulin and anti-insulin ([13]; listed as guanidinium): little effect; effect on dissociation rate of insulin and anti-insulin ([13]; listed as guanidinium): accelerated

From patent US20080247991A1, “Solution Additives For the Attenuation of Protein Aggregation” (priority 2004, published 2008)
